Here are results for 16 compounds from patent US8163909B2, “Substituted hydroxyethyl amine compounds as beta-secretase modulators and methods of use” (Amgen Inc., priority 2007, dated 2012).

One data set addresses CYP2D6 (Homo sapiens, UniProt P10635). The data set is described as follows: CYP2D6 inhibition assay (bufuralol, pooled human liver microsomes). A general note: Liver microsomes are a subcellular fraction often used to study metabolism.
Data set [1] is described as follows: Microsomal stability assay, rat liver microsomes.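 Also: rat liver microsomes (0.25 mg/mL) with about 1 µM compound plus 1 mM NADPH, pH 7.4, 37 °C for 30 min, parent left measured by LC-MS/MS against 0 min.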
The target of data set [2] is Beta Secretase enzyme (BACE) (Homo sapiens, UniProt P56817). The data set is described as follows: In vitro enzymatic BACE FRET (fluorescence resonance energy transfer) assay.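 Also: fluorescence read after 1 h with 50 nM quenched peptide substrate spanning the BACE cleavage site, in pH 4.2 acetate buffer containing 10% DMSO and nonionic detergent.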 Format: biochemical.
The nature of data set [3]: Microsomal stability assay, human liver microsomes.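 Also: pooled human liver microsomes at 0.25 mg/mL with 1 µM compound and NADPH at 37 °C, pH 7.4, for 30 min, unchanged parent quantified by LC-MS/MS against the 0 min sample.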
Data set [4] deals with Aβ40 in conditioned medium of cells stably expressing Amyloid Precursor Protein (APP). In words: In vitro BACE cell-based assay (Aβ40 in conditioned medium, sandwich ELISA).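 Also: compounds added as a dilution series, secreted peptide quantified by europium time-resolved fluorescence readout, potency fitted from percent of control versus compound concentration.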 The settings on record: Homo sapiens.
The next data set deals with CYP3A4 (CYP3A) (Homo sapiens, UniProt P08684). The data set is described as follows: in vitro. To be noted: microsomes, pH 7.4.
Another data set has as its system Abeta peptide. In words: In vivo inhibition of beta-secretase (reduction of Abeta peptide in brain and cerebrospinal fluid).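 Also: abeta peptide quantified by sandwich ELISA with electrochemiluminescence readout in rat brain supernatant or CSF, relative to vehicle-dosed control animals.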 Also on record: species or system rat. To be noted: Rattus norvegicus, po, 4 h.
Where [5] appears, read: read-out: BACE1 FRET assay (IC50).
Setting [6] is: HEK293, HEK cells, read-out: HEK cell assay (IC50).
Setting [7] is: rat cerebrospinal fluid, orally administered at 30 mg/kg dose, measured after 4 hours, read-out: percent reduction of abeta peptide in the cerebrospinal fluid of the rat.
[8] abbreviates: 2D6 IC50 (uM), CYP enzyme inhibition.
The mark [9] stands for this setting: BACE enzyme assay, IC50's in uM, read-out: BACE1 FRET assay.
The mark [10] stands for this setting: HEK293, HEK cell-based assay, IC50's in uM, read-out: HEK cell assay.
The mark [11] stands for this setting: rat brain, orally administered at 30 mg/kg dose, measured after 4 hours, read-out: percent reduction of abeta peptide in the brain of the rat.
The mark [12] stands for this setting: BACE enzyme assay, read-out: BACE1 FRET assay.
Setting [13] is: HEK293, HEK cells, read-out: HEK cell assay.
The mark [14] stands for this setting: 2D6 IC50, CYP enzyme inhibition.
Where [15] appears, read: HEK293, cell-based assay, HEK cells, IC50's in uM, read-out: HEK cell assay.

Read-outs that look alike come from different tables or passages of the source.

Chain of Beta Secretase enzyme (BACE) (P56817 46-501): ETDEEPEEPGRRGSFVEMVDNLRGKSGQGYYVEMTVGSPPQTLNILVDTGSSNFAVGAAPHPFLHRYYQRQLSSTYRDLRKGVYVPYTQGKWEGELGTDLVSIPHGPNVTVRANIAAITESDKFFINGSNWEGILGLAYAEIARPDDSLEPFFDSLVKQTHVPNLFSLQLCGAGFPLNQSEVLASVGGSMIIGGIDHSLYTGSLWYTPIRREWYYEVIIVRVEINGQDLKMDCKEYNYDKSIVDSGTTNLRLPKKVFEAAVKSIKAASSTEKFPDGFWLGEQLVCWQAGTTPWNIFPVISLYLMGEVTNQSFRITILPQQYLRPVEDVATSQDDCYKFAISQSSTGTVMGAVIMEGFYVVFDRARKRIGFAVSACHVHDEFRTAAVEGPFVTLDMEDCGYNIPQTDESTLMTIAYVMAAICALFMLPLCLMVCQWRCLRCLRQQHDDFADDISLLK
Chain of CYP3A4 (CYP3A) (P08684 2-503): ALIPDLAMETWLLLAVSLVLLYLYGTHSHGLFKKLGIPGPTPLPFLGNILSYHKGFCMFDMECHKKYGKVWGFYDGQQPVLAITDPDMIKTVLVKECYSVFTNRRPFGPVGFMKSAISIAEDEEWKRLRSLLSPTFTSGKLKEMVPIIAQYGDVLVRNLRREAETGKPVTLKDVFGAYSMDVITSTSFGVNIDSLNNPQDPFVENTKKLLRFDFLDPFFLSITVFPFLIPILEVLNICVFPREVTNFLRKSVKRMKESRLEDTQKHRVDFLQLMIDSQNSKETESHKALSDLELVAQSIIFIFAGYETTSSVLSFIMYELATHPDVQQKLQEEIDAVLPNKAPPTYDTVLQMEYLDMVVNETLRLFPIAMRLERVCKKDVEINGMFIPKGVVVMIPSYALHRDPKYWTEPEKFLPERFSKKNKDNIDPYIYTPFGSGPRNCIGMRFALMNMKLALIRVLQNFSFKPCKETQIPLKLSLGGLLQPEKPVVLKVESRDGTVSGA
Chain of CYP2D6 (P10635 whole entry): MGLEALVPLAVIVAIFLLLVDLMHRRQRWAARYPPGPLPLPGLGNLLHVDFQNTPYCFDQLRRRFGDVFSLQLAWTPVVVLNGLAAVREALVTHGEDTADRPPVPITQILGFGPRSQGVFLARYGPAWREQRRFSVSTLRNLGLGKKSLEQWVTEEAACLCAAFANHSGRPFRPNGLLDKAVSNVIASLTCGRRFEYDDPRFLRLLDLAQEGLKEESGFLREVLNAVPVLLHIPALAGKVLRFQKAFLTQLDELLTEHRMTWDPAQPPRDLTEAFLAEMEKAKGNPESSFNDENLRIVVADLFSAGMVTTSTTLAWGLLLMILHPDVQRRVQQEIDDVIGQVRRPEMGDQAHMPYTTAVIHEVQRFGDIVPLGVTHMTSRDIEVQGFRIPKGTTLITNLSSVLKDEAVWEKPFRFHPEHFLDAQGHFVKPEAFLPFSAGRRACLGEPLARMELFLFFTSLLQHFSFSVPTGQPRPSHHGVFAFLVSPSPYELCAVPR

Regarding `CC(=O)N[C@@H](Cc1ccc(F)c(-c2nccs2)c1)[C@H](O)CN[C@H]1CC2(CCC2)Oc2ccc(CC(C)(C)C)cc21` [Example 640], the IC50 stood at 0.3 µM against CYP2D6 (2D6 IC50, CYP2D6 inhibition); 0.006 µM in data set [2] (setting [5]); 0.053 µM in data set [4] (setting [6]); 700 nM against CYP3A4 (CYP3A). In addition, the RLM in data set [1] (rat liver microsomes) came out at 113 µL/min/mg. In data set [3] (human liver microsomes), the HLM is 59 µL/min/mg. The inhibition in vivo at 30 mg/kg in the data set with Abeta peptide (setting [7]) is 10 to 80%.
On to `COC(OC)C(=O)N[C@@H](Cc1cccc(-c2nccs2)c1)[C@H](O)CN[C@H]1CC2(CCC2)Oc2ncc(CC(C)C)cc21` [Example 816, N-((1S,2R)-2-hydroxy-3-(((4′S)-6′-(2-methylpropyl)-3′,4′-dihydrospiro[cyclobutane-1,2′-pyrano[2,3-b]pyridin]-4′-yl)amino)-1-(3-(1,3-thiazol-2-yl)benzyl)propyl)-2,2-dimethoxyacetamide], for which the IC50 stood at 0.7 µM against CYP2D6 (setting [8]), 0.008 µM in data set [2] (setting [9]), 0.024 µM in data set [4] (setting [10]) and 300 nM at CYP3A4 (CYP3A). Moreover, in data set [1] (rat liver microsomal data), the “RLM” value was 44 µL/min/mg. Besides, in data set [3] (human liver microsomal data), the “HLM” value was determined as 46 µL/min/mg. For the same compound, the inhibition in vivo at 30 mg/kg fell in the range of 5 to 80% in the data set on Abeta peptide (setting [11]) and 10 to 80% with Abeta peptide (setting [7]).
In the case of `CC(=O)N[C@@H](Cc1cccc(F)c1)[C@H](O)CN[C@H]1CC2(CCC2)Oc2c1cc(CC(C)(C)C)nc2-n1ccnc1` [Example 506], the IC50 on CYP2D6 (setting [8]) came to 2.2 µM; in data set [2] (setting [12]) it was 0.021 µM; in data set [4] (setting [13]) it was 0.02 µM; on CYP3A4 (CYP3A), 100 nM. Further, in data set [1] (rat liver microsomal data), the “RLM” value is 61 µL/min/mg. For the same compound, the “HLM” value in data set [3] (human liver microsomal data) was determined as 14 µL/min/mg. For the same compound, the inhibition in vivo at 30 mg/kg in the data set on Abeta peptide (setting [7]) lay within 10 to 80%.
Turning to `CC(C)(C)Cc1cnc2c(c1)[C@@H](NC[C@@H](O)[C@H](Cc1ccc3c(c1)OCO3)NC(=O)[C@H]1CCO1)CC1(CCC1)O2` [Example 516, (2R)-N-((1S,2R)-1-(1,3-benzodioxol-5-ylmethyl)-3-(((4′S)-6′-(2,2-dimethylpropyl)-3′,4′-dihydrospiro[cyclobutane-1,2′-pyrano[2,3-b]pyridin]-4′-yl)amino)-2-hydroxypropyl)-2-oxetanecarboxamide], the IC50 against CYP2D6 (setting [8]) came out at 3.3 µM; in data set [2] (setting [12]) it was 0.018 µM; in data set [4] (setting [13]), 0.02 µM; against CYP3A4 (CYP3A) it was 100 nM. The “RLM” value in data set [1] (rat liver microsomal data) was found to be 94 µL/min/mg. The “HLM” value in data set [3] (human liver microsomal data) was determined as 31 µL/min/mg. Further, in the data set on Abeta peptide (setting [7]), the inhibition in vivo at 30 mg/kg is 10 to 80%.
As for `COCC(=O)N[C@@H](Cc1cc(-c2nccs2)ccc1F)[C@H](O)CN[C@H]1CC2(CCC2)Oc2ncc(CC(C)(C)C)cc21` [Example 900], the IC50 is at least 27 µM against CYP2D6 (setting [14]) and at least 27000 nM at CYP3A4 (CYP3A). Moreover, in the data set on Abeta peptide (setting [7]), the inhibition in vivo at 30 mg/kg is 10 to 80%.
Consider `CC(=O)N[C@@H](Cc1ccccc1)[C@H](O)CN[C@H]1CC2(CCC2)Oc2c1cc(CC(C)(C)C)nc2-c1ccncc1` [Example 542], for which the IC50 was at least 27 µM against CYP2D6 (setting [8]), 0.024 µM in data set [2] (setting [12]), 0.103 µM in data set [4] (setting [13]) and 200 nM at CYP3A4 (CYP3A). In addition, in data set [1] (rat liver microsomal data), the “RLM” value was 193 µL/min/mg. Moreover, in data set [3] (human liver microsomal data), the “HLM” value worked out at 36 µL/min/mg. Further, in the data set with Abeta peptide (setting [7]), the inhibition in vivo at 30 mg/kg is 10 to 80%.
`COCC(=O)N[C@@H](Cc1cccc(F)c1)[C@H](O)CN[C@H]1CC2(CCC2)Oc2c(-c3ccncc3)cc(CC(C)(C)C)cc21` [Example 535]: the IC50 on CYP2D6 (setting [8]) was found to be 2.5 µM; in data set [2] (setting [12]), 0.009 µM; in data set [4] (setting [13]), 0.006 µM; on CYP3A4 (CYP3A), 100 nM. Besides, the “RLM” value in data set [1] (rat liver microsomal data) turned out to be 79 µL/min/mg. The “HLM” value in data set [3] (human liver microsomal data) was found to be 49 µL/min/mg. Further, in the data set with Abeta peptide (setting [7]), the inhibition in vivo at 30 mg/kg was in the range of 10 to 80%.
In data set [1] (rat liver microsomal data), `CC(C)C(=O)N[C@@H](Cc1cc(F)cc(-c2nccs2)c1)[C@H](O)CN[C@H]1CC2(CCC2)Oc2ncc(CC(C)(C)C)cc21` [Example 883] gave an RLM of 52 µL/min/mg. The IC50 in data set [2] (setting [9]) turned out to be 0.021 µM; in data set [4] (setting [15]), 0.021 µM; at CYP3A4 (CYP3A) it was 100 nM. The compound further displayed an HLM in data set [3] (human liver microsomal data) of 54 µL/min/mg. Further, the inhibition in vivo at 30 mg/kg in the data set on Abeta peptide (setting [7]) fell in the range of 10 to 80%.
For `C#Cc1cccc(C[C@H](NC(=O)COC)[C@H](O)CN[C@H]2CC3(CCC3)Oc3ncc(CC(C)C)cc32)c1` [Example 756], the IC50 on CYP2D6 (setting [8]) was 1.4 µM; in data set [2] (setting [9]), 0.005 µM; in data set [4] (setting [10]), 0.009 µM. Also, the “RLM” value in data set [1] (rat liver microsomal data) amounted to 49 µL/min/mg. Also, the “HLM” value in data set [3] (human liver microsomal data) turned out to be 53 µL/min/mg. In addition, the inhibition in vivo at 30 mg/kg in the data set on Abeta peptide (setting [7]) fell in the range of 10 to 80%.
As for `C#Cc1cccc(C[C@H](NC(=O)CC)[C@H](O)CN[C@H]2CC3(CCC3)Oc3ncc(CC(C)(C)C)cc32)c1` [Example 873], the IC50 at CYP2D6 (setting [14]) worked out at 0.8 µM; in data set [2] (setting [9]), 0.003 µM; in data set [4] (setting [15]), 0.007 µM. The compound also returned an RLM in data set [1] (rat liver microsomal data) of 29 µL/min/mg. This compound also came in with an HLM in data set [3] (human liver microsomal data) of 35 µL/min/mg. The inhibition in vivo at 30 mg/kg in the data set with Abeta peptide (setting [7]) is at least 50%.
On to `C#Cc1cccc(C[C@H](NC(=O)COCC)[C@H](O)CN[C@H]2CC3(CCC3)Oc3ncc(CC(C)(C)C)cc32)c1` [Example 870, N-((1S,2R)-3-(((4′S)-6′-(2,2-dimethylpropyl)-3′,4′-dihydrospiro[cyclobutane-1,2′-pyrano[2,3-b]pyridin]-4′-yl)amino)-1-(3-ethynylbenzyl)-2-hydroxypropyl)-2-ethoxyacetamide], for which the IC50 against CYP2D6 (setting [14]) is 1.6 µM; in data set [2] (setting [9]), 0.004 µM; in data set [4] (setting [15]), 0.011 µM. For the same compound, in the data set with Abeta peptide (setting [7]), the inhibition in vivo at 30 mg/kg was at least 50%.
Regarding `CO[C@H](C)C(=O)N[C@@H](Cc1cccc(C#N)c1)[C@H](O)CN[C@H]1CC2(CCC2)Oc2c(-c3ccncc3)cc(CC(C)(C)C)cc21` [Example 638], the IC50 against CYP2D6 (2D6 IC50, CYP2D6 inhibition) stood at 3 µM; in data set [2] (setting [5]) it was 0.017 µM; in data set [4] (setting [6]), 0.006 µM. This compound also showed an RLM in data set [1] (rat liver microsomes) of 92 µL/min/mg. In data set [3] (human liver microsomes), this compound registered an HLM of 32 µL/min/mg. Besides, the inhibition in vivo at 30 mg/kg with Abeta peptide (setting [7]) lay within 10 to 80%.
In turn, `CC(C)(C)Cc1cnc2c(c1)[C@@H](NC[C@@H](O)[C@H](Cc1cc(F)cc(-c3nccs3)c1)NC(=O)CF)CC1(CCC1)O2` [Example 878] showed an RLM in data set [1] (rat liver microsomal data) of 65 µL/min/mg. For the same compound, the results for the IC50 (in data set [2] (setting [9]); in data set [4] (setting [15]); at CYP3A4 (CYP3A)) were 0.004 µM, 0.022 µM and 200 nM, respectively. This compound also displayed an HLM in data set [3] (human liver microsomal data) of 72 µL/min/mg. Also, the inhibition in vivo at 30 mg/kg with Abeta peptide (read-out: percent reduction of abeta peptide in the brain of the rat) was in the range of 5 to 80%.
Turning to `C#Cc1cc(F)cc(C[C@H](NC(=O)[C@@H](C)OC)[C@H](O)CN[C@H]2CC3(CCC3)Oc3ncc(CC(C)C)cc32)c1` [Example 835], the IC50 on CYP2D6 (setting [8]) was 2.1 µM; in data set [2] (setting [9]), 0.006 µM; in data set [4] (setting [10]), 0.026 µM. Also, the “RLM” value in data set [1] (rat liver microsomal data) worked out at 109 µL/min/mg. Further, the “HLM” value in data set [3] (human liver microsomal data) came to 48 µL/min/mg. In the data set on Abeta peptide (setting [11]), the inhibition in vivo at 30 mg/kg was in the range of 5 to 80%.
`COCC(=O)N[C@@H](Cc1cc(F)cc(F)c1)[C@H](O)CN[C@H]1CC2(CCC2)Oc2c1cc(CC(C)(C)C)nc2-c1cncn1C` [Example 597]: the IC50 against CYP2D6 (2D6 IC50, CYP2D6 inhibition) stood at 2.8 µM; in data set [2] (setting [5]), 0.034 µM; in data set [4] (setting [6]), 0.011 µM. The RLM in data set [1] (rat liver microsomes) amounted to 35 µL/min/mg. In data set [3] (human liver microsomes), this compound had an HLM of 22 µL/min/mg. Moreover, in the data set with Abeta peptide (setting [7]), the inhibition in vivo at 30 mg/kg lay in the range of 10 to 80%.
With `C#Cc1cc(C[C@H](NC(=O)C(OC)OC)[C@H](O)CN[C@H]2CC3(CCC3)Oc3ncc(CC(C)(C)C)cc32)ccc1F` [Example 861], the IC50 against CYP2D6 (setting [14]) stood at 2.1 µM; in data set [2] (setting [9]), 0.008 µM; in data set [4] (setting [15]), 0.018 µM. The RLM in data set [1] (rat liver microsomal data) worked out at 64 µL/min/mg. The same compound came in with an HLM in data set [3] (human liver microsomal data) of 28 µL/min/mg. Further, the inhibition in vivo at 30 mg/kg with Abeta peptide (setting [7]) is at least 50%.
